Columns and labels:
Assay type in all cases: ADME, organism-based
Mus musculus [1] = assay: In vivo biodistribution of radiolabeled [99mTc]-N4IPA in mice spleen bearing S180 tumor cell line for 2 hours; conditions: ccrf s-180, 2 h
Mus musculus [2] = assay: In vivo biodistribution of radiolabeled [99mTc]-N4IPA in mice kidney bearing S180 tumor cell line for 4 hours; conditions: ccrf s-180, 4 h
Mus musculus [3] = assay: In vivo biodistribution of radiolabeled [99mTc]-N4IPA in mice kidney bearing S180 tumor cell line for 8 hours; conditions: ccrf s-180, 8 h
Mus musculus [4] = assay: In vivo biodistribution of radiolabeled [99mTc]N4IPA in mice liver bearing S180 tumor cell line for 1 hour; conditions: ccrf s-180, 1 h
Mus musculus [5] = assay: In vivo biodistribution of radiolabeled [99mTc]N4IPA in mice liver bearing S180 tumor cell line for 2 hours; conditions: ccrf s-180, 2 h
Mus musculus [6] = assay: In vivo biodistribution of radiolabeled [99mTc]-N4IPA in mice liver bearing S180 tumor cell line for 30 minutes; conditions: ccrf s-180, 0.5 h
Mus musculus [7] = assay: In vivo biodistribution of radiolabeled [99mTc]-N4IPA in mice liver bearing S180 tumor cell line for 4 hours; conditions: ccrf s-180, 4 h
Mus musculus [8] = assay: In vivo biodistribution of radiolabeled [99mTc]N4IPA in mice liver bearing S180 tumor cell line for 8 hours; conditions: ccrf s-180, 8 h
Mus musculus [9] = assay: In vivo biodistribution of radiolabeled [99mTc]-N4IPA in mice lung bearing S180 tumor cell line for 2 hours; conditions: ccrf s-180, 2 h
Mus musculus [10] = assay: In vivo biodistribution of radiolabeled [99mTc]N4IPA in mice lung bearing S180 tumor cell line for 30 minutes; conditions: ccrf s-180, 0.5 h
Mus musculus [11] = assay: In vivo biodistribution of radiolabeled [99mTc]-N4IPA in mice lung bearing S180 tumor cell line for 4 hours; conditions: ccrf s-180, 4 h
Mus musculus [12] = assay: In vivo biodistribution of radiolabeled [99mTc]N4IPA in mice lung bearing S180 tumor cell line for 8 hours; conditions: ccrf s-180, 8 h
Mus musculus [13] = assay: In vivo biodistribution of radiolabeled [99mTc]-N4IPA in mice muscle bearing S180 tumor cell line for 1 hour; conditions: ccrf s-180, 1 h
Mus musculus [14] = assay: In vivo biodistribution of radiolabeled [99mTc]N4IPA in mice muscle bearing S180 tumor cell line for 2 hours; conditions: ccrf s-180, 2 h
Mus musculus [15] = assay: In vivo biodistribution of radiolabeled [99mTc]-N4IPA in mice muscle bearing S180 tumor cell line for 30 minutes; conditions: ccrf s-180, 0.5 h
Mus musculus [16] = assay: In vivo biodistribution of radiolabeled [99mTc]-N4IPA in mice muscle bearing S180 tumor cell line for 4 hours; conditions: ccrf s-180, 4 h
Mus musculus [17] = assay: In vivo biodistribution of radiolabeled [99mTc]-N4IPA in mice muscle bearing S180 tumor cell line for 8 hours; conditions: ccrf s-180, 8 h
Mus musculus [18] = assay: In vivo biodistribution of radiolabeled [99mTc]N4IPA in mice spleen bearing S180 tumor cell line for 1 hour; conditions: ccrf s-180, 1 h
Mus musculus [19] = assay: In vivo biodistribution of radiolabeled [99mTc]-N4IPA in mice spleen bearing S180 tumor cell line for 30 minutes; conditions: ccrf s-180, 0.5 h
Mus musculus [20] = assay: In vivo biodistribution of radiolabeled [99mTc]-N4IPA in mice spleen bearing S180 tumor cell line for 4 hours; conditions: ccrf s-180, 4 h
Mus musculus [21] = assay: In vivo biodistribution of radiolabeled [99mTc]-N4IPA in mice spleen bearing S180 tumor cell line for 8 hours; conditions: ccrf s-180, 8 h
Mus musculus [22] = assay: In vivo biodistribution of radiolabeled [99mTc]-N4IPA in mice tumor bearing S180 tumor cell line for 1 hour; conditions: ccrf s-180, 1 h
Mus musculus [23] = assay: In vivo biodistribution of radiolabeled [99mTc]N4IPA in mice tumor bearing S180 tumor cell line for 2 hours; conditions: ccrf s-180, 2 h
Mus musculus [24] = assay: In vivo biodistribution of radiolabeled [99mTc]-N4IPA in mice tumor bearing S180 tumor cell line for 30 minutes; conditions: ccrf s-180, 0.5 h
Mus musculus [25] = assay: In vivo biodistribution of radiolabeled [99mTc]-N4IPA in mice tumor bearing S180 tumor cell line for 4 hours; conditions: ccrf s-180, 4 h
Mus musculus [26] = assay: In vivo biodistribution of radiolabeled [99mTc]N4IPA in mice tumor bearing S180 tumor cell line for 8 hours; conditions: ccrf s-180, 8 h
Mus musculus [27] = assay: In vivo biodistribution of radiolabeled [99mTc]N4IPA in mice tumor/blood bearing S180 tumor cell line for 1 hour; conditions: ccrf s-180, 1 h
Mus musculus [28] = assay: In vivo biodistribution of radiolabeled [99mTc]N4IPA in mice tumor/blood bearing S180 tumor cell line for 2 hours; conditions: ccrf s-180, 2 h
Mus musculus [29] = assay: In vivo biodistribution of radiolabeled [99mTc]N4IPA in mice tumor/blood bearing S180 tumor cell line for 30 minutes; conditions: ccrf s-180, 0.5 h
Mus musculus [30] = assay: In vivo biodistribution of radiolabeled [99mTc]N4IPA in mice tumor/blood bearing S180 tumor cell line for 4 hours; conditions: ccrf s-180, 4 h
Mus musculus [31] = assay: In vivo biodistribution of radiolabeled [99mTc]N4IPA in mice tumor/blood bearing S180 tumor cell line for 8 hours; conditions: ccrf s-180, 8 h
Mus musculus [32] = assay: In vivo biodistribution of radiolabeled [99mTc]N4IPA in mice tumor/heart bearing S180 tumor cell line for 1 hour; conditions: ccrf s-180, 1 h
Mus musculus [33] = assay: In vivo biodistribution of radiolabeled [99mTc]N4IPA in mice tumor/heart bearing S180 tumor cell line for 2 hours; conditions: ccrf s-180, 2 h
Mus musculus [34] = assay: In vivo biodistribution of radiolabeled [99mTc]-N4IPA in mice tumor/heart bearing S180 tumor cell line for 4 hours; conditions: ccrf s-180, 4 h
Mus musculus [35] = assay: In vivo biodistribution of radiolabeled [99mTc]-N4IPA in mice tumor/heart bearing S180 tumor cell line for 8 hours; conditions: ccrf s-180, 8 h

- Biodistribution (Mus musculus [1]): 0.09 % g-1
- Biodistribution (Mus musculus [2]): 3.14 % g-1
- Biodistribution (Mus musculus [3]): 2.26 % g-1
- Biodistribution (Mus musculus [4]): 0.79 % g-1
- Biodistribution (Mus musculus [5]): 0.46 % g-1
- Biodistribution (Mus musculus [6]): 0.98 % g-1
- Biodistribution (Mus musculus [7]): 0.39 % g-1
- Biodistribution (Mus musculus [8]): 0.23 % g-1
- Biodistribution (Mus musculus [9]): 0.17 % g-1
- Biodistribution (Mus musculus [10]): 0.39 % g-1
- Biodistribution (Mus musculus [11]): 0.12 % g-1
- Biodistribution (Mus musculus [12]): 0.1 % g-1
- Biodistribution (Mus musculus [13]): 0.11 % g-1
- Biodistribution (Mus musculus [14]): 0.05 % g-1
- Biodistribution (Mus musculus [15]): 0.15 % g-1
- Biodistribution (Mus musculus [16]): 0.04 % g-1
- Biodistribution (Mus musculus [17]): 0.04 % g-1
- Biodistribution (Mus musculus [18]): 0.1 % g-1
- Biodistribution (Mus musculus [19]): 0.13 % g-1
- Biodistribution (Mus musculus [20]): 0.08 % g-1
- Biodistribution (Mus musculus [21]): 0.06 % g-1
- Biodistribution (Mus musculus [22]): 0.45 % g-1
- Biodistribution (Mus musculus [23]): 0.39 % g-1
- Biodistribution (Mus musculus [24]): 0.55 % g-1
- Biodistribution (Mus musculus [25]): 0.34 % g-1
- Biodistribution (Mus musculus [26]): 0.32 % g-1
- Biodistribution (Mus musculus [27]): 1.19 % g-1
- Biodistribution (Mus musculus [28]): 1.81 % g-1
- Biodistribution (Mus musculus [29]): 0.78 % g-1
- Biodistribution (Mus musculus [30]): 1.88 % g-1
- Biodistribution (Mus musculus [31]): 2.06 % g-1
- Biodistribution (Mus musculus [32]): 3.22 % g-1
- Biodistribution (Mus musculus [33]): 3.39 % g-1
- Biodistribution (Mus musculus [34]): 4.47 % g-1
- Biodistribution (Mus musculus [35]): 5.39 % g-1
SMILES: N/C(CCn1cnc([N+](=O)[O-])c1)=N\O

— ChEMBL document CHEMBL1147434, “Synthesis and biological results of the technetium-99m-labeled 4-nitroimidazole for imaging tumor hypoxia” (Bioorg Med Chem Lett, 2004)
